This is an account of results in patent publication US7696208B2, “Therapeutic agents useful for treating pain” (Purdue Pharma L.P., priority 2003, dated 2010).

Experiment [1] has as its target T1, human VR1 (Homo sapiens, UniProt Q8NER1).
T1 construct: expressed in transfected cells; host or cells: HEK293-EcR cells, expression induced with ponasterone A
As to the kind of experiment: pH-based assay (FLIPR calcium influx, inducible HEK293-EcR cells expressing human VR1). In kind it is cell-based. The note with it: agonist buffer giving pH 5.5, HEK293-EcR cells induced with 5 μM PonA, Fluo-4, FLIPR, n=5. The method, then:
(§1) Human VR1 Cloning: Human spinal cord RNA (commercially available from Clontech, Palo Alto, Calif.) was used. Reverse transcription was conducted on 1.0 μg total RNA using Thermoscript Reverse Transcriptase (commercially available from Invitrogen, Carlsbad, Calif.) and oligo dT primers as detailed in its product description. Reverse transcription reactions were incubated at 55° C. for 1 h, heat-inactivated at 85° C. for 5 min, and RNase H-treated at 37° C. for 20 min.
(§2) Human VR1 cDNA sequence was obtained by comparison of the human genomic sequence, prior to annotation, to the published rat sequence. Intron sequences were removed and flanking exonic sequences were joined to generate the hypothetical human cDNA. Primers flanking the coding region of human VR1 were designed as follows: forward primer, […]; and reverse primer, […]. […]
(§3) Generation of Inducible Cell Lines: Unless noted otherwise, cell culture reagents were purchased from Life Technologies of Rockville, Md. […] On the day of assay, cells were loaded with Fluo-4 (a calcium-sensitive dye that is commercially available from Molecular Probes, Eugene, Oreg.) and CAP-mediated calcium influx was measured using a FLIPR as described below. […]

The target in experiment [2] is T1, human VR1. As to the kind of experiment: Capsaicin-based assay (FLIPR calcium influx, inducible HEK293-EcR cells expressing human VR1). In kind it is cell-based. The note with it: activation by 50 μL of capsaicin (400 nM), HEK293-EcR cells induced with 5 μM PonA, Fluo-4, FLIPR, n=3. The method, then: as §1, §2, §3

Structures are written as SMILES.

T1 sequence (Q8NER1 whole entry): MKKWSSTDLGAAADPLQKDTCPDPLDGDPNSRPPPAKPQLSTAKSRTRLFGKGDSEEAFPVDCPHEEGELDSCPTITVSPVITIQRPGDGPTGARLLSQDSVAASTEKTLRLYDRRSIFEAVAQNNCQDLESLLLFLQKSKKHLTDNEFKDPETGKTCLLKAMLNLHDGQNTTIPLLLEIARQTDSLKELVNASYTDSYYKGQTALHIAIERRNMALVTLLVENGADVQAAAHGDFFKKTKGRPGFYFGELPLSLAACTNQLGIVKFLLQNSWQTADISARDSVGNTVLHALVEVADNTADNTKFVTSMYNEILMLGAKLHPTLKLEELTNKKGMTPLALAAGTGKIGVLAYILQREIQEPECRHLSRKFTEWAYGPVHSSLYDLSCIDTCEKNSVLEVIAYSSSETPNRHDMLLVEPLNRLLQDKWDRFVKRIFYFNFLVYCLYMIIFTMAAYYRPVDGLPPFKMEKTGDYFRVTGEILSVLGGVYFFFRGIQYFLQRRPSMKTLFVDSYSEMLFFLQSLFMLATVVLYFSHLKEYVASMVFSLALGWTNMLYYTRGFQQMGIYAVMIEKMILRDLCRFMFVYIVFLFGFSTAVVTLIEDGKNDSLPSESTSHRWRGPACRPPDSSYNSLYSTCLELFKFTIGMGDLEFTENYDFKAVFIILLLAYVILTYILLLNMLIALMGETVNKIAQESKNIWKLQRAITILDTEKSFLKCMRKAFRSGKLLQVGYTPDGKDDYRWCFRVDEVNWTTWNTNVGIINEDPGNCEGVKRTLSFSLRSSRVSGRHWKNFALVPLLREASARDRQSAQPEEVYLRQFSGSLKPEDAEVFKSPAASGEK

A word on the IC50: it is the concentration that inhibits the measured activity by half. On to `O=C(NCCc1ccccc1)N1CCN(c2ncccc2C(F)(F)F)CC1` [Compound A19], for which the IC50 at human VR1 [1] stood at 808 ± 254 nM; on human VR1 [2], 382 ± 64.2 nM.
